# Measured values taken from patent publication US20260274832A1, “COMPOUNDS AND THEIR USE IN TREATING CANCER” (ASTRAZENECA AB, priority 2023, published 2026).
# How the values were obtained:
# [1] = biological target: T1, AR (L702H) in LNCaP cells (Homo sapiens, UniProt P10275, L702H/T878A); assay: LNCaP Androgen Receptor L702H Imaging Assay (LNCaP cells engineered by CRISPR/Cas9); type: cell-based; details: LNCaP cells with AR L702H mutation, 24 h incubation; for DC50: concentration giving 50% of maximum degradation of AR (L702H) per curve fit; for Dmax: LNCaP; for Dmax / LNCaP AR (L702H) Degradation Dmax: maximum degradation observed, normalized as % of positive control
# T1 construct: engineered to introduce the mutation L702H into the AR gene using CRISPR/Cas9; endogenous in cells; host or cells: LNCaP cells edited by CRISPR/Cas9 at the AR gene
# Procedure: (§1) All work was performed in a sterile tissue culture hood up to the point of cell fixation. LNCaP cells were cultured at 6-8×10^6 per T175 flask and split every 3-4 days. Medium: RPMI (R7638, VWR Sigma) containing 10% FCS and 1% glutamine. Cells were plated in black wall transparent bottom plates at a density of 12,000 cells (Cedex™ Cell counter, Beckmann & Coulter), 40 μL per well, using a Multidrop (ThermoFisher).
# (§2) Cells were dosed with test compound diluted in DMSO using an Echo 555/655™ (Labcyte) and the final concentration of DMSO in the well was 0.3%. A neutral control (DMSO) and a positive AR degrader control at 3 μM (a prior art AR PROTAC) were included. The Echo uses acoustic technology to perform direct microplate-to-microplate transfers of DMSO compound solutions to assay plates. The system can be programmed to transfer volumes as low as 2.5 nL in multiple increments between microplates and in so doing generates a serial dilution of compound in the assay plate which is then back-filled to normalise the DMSO concentration across the dilution range. Compounds were dispensed as a 12 point dose response with indicated concentrations. The plates were incubated at 37° C./5% CO2 for 24 h and then fixed and stained as below. 40 μL of 8% paraformaldehyde solution (v/v) in phosphate buffered saline (PBS) was added on top of the media already in the well using a Multidrop to fix plates giving a final concentration of 4% PFA (v/v) for 20-30 minutes (keep in fume hood to minimise PFA exposure). After 20-30 mins, the plates were washed with 3×PBS using a BioTek washer in a fume hood. A shake out of remaining volume in the well was performed to ensure best removal of remaining PBS. At this plates could be stored in PBS after washing for at least 3 days at 4° C., if so, PBS was removed by the BioTek before continuing with the next step.
# (§3) The cells were incubated with a Mouse monoclonal Anti-AR antibody AR441 (DAKO M3562) (1:1000), diluted in modified blocking buffer (PBS+1% BSA+0.1% TritonX); 15 μL/well for 2 h at RT. The plates were then washed with 3×PBS using a BioTek washer. A shake out of remaining volume in the well was performed to ensure best removal of remaining PBS. Cells were then incubated with Goat anti-mouse secondary antibody 488 (Invitrogen A11001) (1:500) and nuclear stain, DRAQ5 (Abcam Ab108410) (1:2000) diluted in modified blocking buffer for 45 mins at room temperature 15 μL/well. Plates are then washed with 3×PBS using a BioTek washer, without final aspiration, and sealed with black plate seals. Plates could be stored after staining for three days at 4° C. before read if required.
# (§4) Plates are read using a Cellomics Cellinsight to measure the Androgen Receptor level in each well. The data is exported into Genedata to perform curve fitting analysis. All data are normalized as % of positive control and the BellFit method automatically determines the correct fit method based on the presence of hook effect, choosing the BellFit when there is a hook and HillFit when there is no hook. Down-regulation of AR is expressed as a DC50 value and determined by calculation of the concentration of compound that is required to give 50% of maximum degradation of AR as per the curve fit for that compound. The maximum degradation observed for each compound is expressed as Dmax. The AR degradation data for compounds is shown in the table below and may be a result from a single experiment or an average of two or more experiments.
# At this stage, anti-androgen therapy is largely ineffective due to AR amplification, overexpression or point mutation. One of the point mutations observed in patient populations is L702H in the AR Ligand Binding Domain. LNCAP cells have been engineered to introduce the mutation L702H into the AR gene using CRISPR/Cas9. The previously described imaging-based AR assay will monitor nuclear AR (L702H) levels in these cells to identify compounds that regulate AR (L702H). […]
# [2] = biological target: T2, AR (AR-full length) in LNCaP cells (Homo sapiens, UniProt P10275, T878A); assay: LNCaP Androgen Receptor Imaging Assay (immunofluorescence of endogenous nuclear AR); type: cell-based; details: 24 h incubation; for DC50: concentration giving 50% of maximum degradation of AR per curve fit, single experiment or average of two or more; for Dmax: LNCaP; for Dmax / LNCaP AR Degradation Dmax: maximum degradation observed, normalized as % of positive control (prior art AR PROTAC at 3 μM)
# T2 construct: the prostate cancer cell line LNCaP (expressing AR-full length); endogenous in cells; host or cells: LNCaP
# Procedure: This cell-based imaging assay uses immuno-fluorescence to measure endogenous nuclear AR staining in the prostate cancer cell line LNCaP (expressing AR-full length). The purpose of the assay is to identify compounds that regulate AR protein level according to the protocol laid out in the steps below.
# as §1, §2, §3, §4
# T1 sequence (P10275 whole entry L702H/T878A): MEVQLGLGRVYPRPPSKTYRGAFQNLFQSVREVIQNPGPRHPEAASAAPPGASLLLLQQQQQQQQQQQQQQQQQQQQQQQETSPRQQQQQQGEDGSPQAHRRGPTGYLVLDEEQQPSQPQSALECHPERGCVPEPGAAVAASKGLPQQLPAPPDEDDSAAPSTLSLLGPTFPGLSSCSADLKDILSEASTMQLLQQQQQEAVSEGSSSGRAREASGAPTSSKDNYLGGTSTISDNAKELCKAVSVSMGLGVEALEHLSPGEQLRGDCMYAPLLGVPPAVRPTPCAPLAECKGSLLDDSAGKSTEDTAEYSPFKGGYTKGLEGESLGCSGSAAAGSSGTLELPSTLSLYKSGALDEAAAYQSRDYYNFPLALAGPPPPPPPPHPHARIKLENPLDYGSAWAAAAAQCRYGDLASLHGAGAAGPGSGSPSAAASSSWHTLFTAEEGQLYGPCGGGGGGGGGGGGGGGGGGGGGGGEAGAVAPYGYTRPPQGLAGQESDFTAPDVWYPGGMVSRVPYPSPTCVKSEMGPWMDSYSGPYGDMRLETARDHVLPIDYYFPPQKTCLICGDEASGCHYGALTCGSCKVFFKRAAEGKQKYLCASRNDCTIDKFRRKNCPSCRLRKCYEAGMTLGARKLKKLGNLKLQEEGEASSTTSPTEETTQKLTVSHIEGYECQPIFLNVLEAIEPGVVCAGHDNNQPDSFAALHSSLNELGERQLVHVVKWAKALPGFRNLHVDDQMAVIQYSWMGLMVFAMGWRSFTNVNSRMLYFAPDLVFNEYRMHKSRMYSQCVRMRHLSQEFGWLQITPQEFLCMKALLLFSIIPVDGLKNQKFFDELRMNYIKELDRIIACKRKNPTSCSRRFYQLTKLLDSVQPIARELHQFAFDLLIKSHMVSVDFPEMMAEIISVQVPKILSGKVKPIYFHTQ
# T1 sequence (Q96SW2 whole entry partner): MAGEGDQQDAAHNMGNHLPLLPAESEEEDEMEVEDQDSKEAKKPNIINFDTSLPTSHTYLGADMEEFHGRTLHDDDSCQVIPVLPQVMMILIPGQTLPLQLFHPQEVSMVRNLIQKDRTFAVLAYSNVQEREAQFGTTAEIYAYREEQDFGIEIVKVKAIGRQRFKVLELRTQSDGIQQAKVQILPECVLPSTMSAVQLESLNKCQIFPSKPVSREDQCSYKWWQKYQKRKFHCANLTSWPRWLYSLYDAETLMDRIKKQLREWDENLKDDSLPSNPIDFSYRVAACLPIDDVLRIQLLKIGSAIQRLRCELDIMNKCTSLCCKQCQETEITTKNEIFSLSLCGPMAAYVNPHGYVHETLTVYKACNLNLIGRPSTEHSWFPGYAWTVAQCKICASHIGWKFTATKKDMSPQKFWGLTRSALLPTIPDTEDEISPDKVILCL
# T2 sequence (P10275 whole entry T878A): as the sequence (P10275 whole entry L702H/T878A) above, with H702L counted along it
# T2 sequence (Q96SW2 whole entry partner): as the sequence (Q96SW2 whole entry partner) above
Compound,DC50 [1] [nM],Dmax [1] [%],DC50 [2] [nM],Dmax [2] [%],LNCaP AR (L702H) Degradation Dmax [1] [%],LNCaP AR Degradation Dmax [2] [%]
"N#Cc1c[nH]c2c(C3CCCN(c4ccc(C5CCN(CC6CCN(c7ccc8c(c7)CN(C7CCC(=O)NC7=O)C8=O)CC6)CC5)cc4)C3)ccc(Cl)c12 (single isomer, unassigned) [Example 96, 4-Chloro-7-[(3R*)-1-{4-[1-({1-[2-(2,6-dioxopiperidin-3-yl)-1-oxo-2,3-dihydro-1H-isoindol-5-yl]piperidin-4-yl}methyl)piperidin-4-yl]phenyl}piperidin-3-yl]-1H-indole-3-carbonitrile]",12,95,31,54,–,–
"N#Cc1c[nH]c2c(C3CCCN(c4ccc(C5CCN(CC6CCN(c7ccc8c(c7)CN(C7CCC(=O)NC7=O)C8=O)CC6)CC5)cc4)C3)ccc(Cl)c12 (single isomer, unassigned) [Example 97, 4-Chloro-7-[(3S*)-1-{4-[1-({1-[2-(2,6-dioxopiperidin-3-yl)-1-oxo-2,3-dihydro-1H-isoindol-5-yl]piperidin-4-yl}methyl)piperidin-4-yl]phenyl}piperidin-3-yl]-1H-indole-3-carbonitrile]",> 3000,–,> 3000,–,–,–
"N#Cc1c[nH]c2c(N3CCCC(c4ccc(N5CCC(CN6CCC(n7ccc8c(N9CCC(=O)NC9=O)cccc87)CC6)CC5)nc4)C3)ccc(Cl)c12 (single isomer, unassigned) [Example 116, 4-Chloro-7-[(3R*)-3-{6-[4-({4-[4-(2,4-dioxo-1,3-diazinan-1-yl)-1H-indol-1-yl]piperidin-1-yl}methyl)piperidin-1-yl]pyridin-3-yl}piperidin-1-yl]-1H-indole-3-carbonitrile]",23,–,11,–,97,103
"N#Cc1c[nH]c2c(N3CCOC(c4ccc(N5CCC(CN6CCC(n7ccc8c(N9CCC(=O)NC9=O)cccc87)CC6)CC5)cc4)C3)ccc(Cl)c12 (single isomer, unassigned) [Example 118, 4-Chloro-7-[(2R*)-2-{4-[4-({4-[4-(2,4-dioxo-1,3-diazinan-1-yl)-1H-indol-1-yl]piperidin-1-yl}methyl)piperidin-1-yl]phenyl}morpholin-4-yl]-1H-indole-3-carbonitrile]",2300,–,24,–,100,92
"N#Cc1n[nH]c2c(N3CCOC(c4ccc(N5CCC(CN6CCC(n7ccc8c(N9CCC(=O)NC9=O)cccc87)CC6)CC5)cc4)C3)ccc(Cl)c12 (single isomer, unassigned) [Example 120, 4-Chloro-7-[(2R*)-2-{4-[4-({4-[4-(2,4-dioxo-1,3-diazinan-1-yl)-1H-indol-1-yl]piperidin-1-yl}methyl)piperidin-1-yl]phenyl}morpholin-4-yl]-1H-indazole-3-carbonitrile]",40,–,13,–,90,101

# Second part, the compound after the results:
DC50 [1] [nM],Dmax [1] [%],DC50 [2] [nM],Dmax [2] [%],LNCaP AR (L702H) Degradation Dmax [1] [%],LNCaP AR Degradation Dmax [2] [%],Compound
11,95,20,87,–,–,"N#Cc1c[nH]c2c(C3CCCN(c4ccc(N5CCC(CN6CCN(c7ccc8c(c7)CN(C7CCC(=O)NC7=O)C8=O)CC6)CC5)cc4)C3)ccc(Cl)c12 (single isomer, unassigned) [Example 93, 4-Chloro-7-[(3R*)-1-{4-[4-({4-[2-(2,6-dioxopiperidin-3-yl)-1-oxo-2,3-dihydro-1H-isoindol-5-yl]piperazin-1-yl}methyl)piperidin-1-yl]phenyl}piperidin-3-yl]-1H-indole-3-carbonitrile]"
15,83,90,40,–,–,"COc1nc(N2CCC(CN3CCC(c4ccc(N5CCCC(c6ccc(Cl)c7c(C#N)c[nH]c67)C5)cc4)CC3)CC2)cc2c1C(=O)N(C1CCC(=O)NC1=O)C2 (single isomer, unassigned) [Example 98, 4-Chloro-7-[(3R*)-1-{4-[1-({1-[2-(2,6-dioxopiperidin-3-yl)-4-methoxy-3-oxo-2,3-dihydro-1H-pyrrolo[3,4-c]pyridin-6-yl]piperidin-4-yl}methyl)piperidin-4-yl]phenyl}piperidin-3-yl]-1H-indole-3-carbonitrile]"
13,102,14,99,–,–,"N#Cc1c[nH]c2c(N3CCCC(c4ccc(N5CCC(CN6CCC(n7ccc8c(N9CCC(=O)NC9=O)cccc87)CC6)CC5)nc4)C3)ccc(Cl)c12 (single isomer, unassigned) [Example 115, 4-Chloro-7-[(3S*)-3-{6-[4-({4-[4-(2,4-dioxo-1,3-diazinan-1-yl)-1H-indol-1-yl]piperidin-1-yl}methyl)piperidin-1-yl]pyridin-3-yl}piperidin-1-yl]-1H-indole-3-carbonitrile]"
363,84,17,89,–,–,"N#Cc1c[nH]c2c(N3CCOC(c4ccc(N5CCC(CN6CCC(n7ccc8c(N9CCC(=O)NC9=O)cccc87)CC6)CC5)cc4)C3)ccc(Cl)c12 (single isomer, unassigned) [Example 117, 4-Chloro-7-[(2S*)-2-{4-[4-({4-[4-(2,4-dioxo-1,3-diazinan-1-yl)-1H-indol-1-yl]piperidin-1-yl}methyl)piperidin-1-yl]phenyl}morpholin-4-yl]-1H-indole-3-carbonitrile]"
14,103,6,99,–,–,"N#Cc1n[nH]c2c(N3CCOC(c4ccc(N5CCC(CN6CCC(n7ccc8c(N9CCC(=O)NC9=O)cccc87)CC6)CC5)cc4)C3)ccc(Cl)c12 (single isomer, unassigned) [Example 119, 4-Chloro-7-[(2S*)-2-{4-[4-({4-[4-(2,4-dioxo-1,3-diazinan-1-yl)-1H-indol-1-yl]piperidin-1-yl}methyl)piperidin-1-yl]phenyl}morpholin-4-yl]-1H-indazole-3-carbonitrile]"
3100,–,18,81,98,–,"N#Cc1c[nH]c2c(N3CCCC(c4ccc(N5CCC(CN6CCC(n7ccc8c(N9CCC(=O)NC9=O)cccc87)CC6)CC5)nn4)C3)ccc(Cl)c12 (single isomer, unassigned) [Example 121, 4-Chloro-7-[(3R*)-3-{6-[4-({4-[4-(2,4-dioxo-1,3-diazinan-1-yl)-1H-indol-1-yl]piperidin-1-yl}methyl)piperidin-1-yl]pyridazin-3-yl}piperidin-1-yl]-1H-indole-3-carbonitrile]"
